Results on four compounds are retold here after ChEMBL document CHEMBL5233262, “Anti-inflammatory activity of naturally occuring diarylheptanoids - A review” (Bioorg Med Chem, 2021).

≈ marks a conversion by molar mass, not a printed value. A value given as a limit tells only on which side of the number the result lay.

Series [1] is described as follows: Antiinflammatory activity in human Keratinocytes assessed as inhibition of LPS induced ERK production at […] incubated for 24 hrs by ELISA. It counts as functional. The note with it: Keratinocyte, dose 7.5 µM. (In general: An ELISA detects its analyte on a solid surface through an enzyme-linked reagent.)
The subject of series [2] is RAW264.7. In words: Antiinflammatory activity in mouse RAW264.7 cells assessed as inhibition of LPS-induced TNFalpha production preincubated for 1 hr followed by LPS stimulation and measured after 18 hrs by immunoassay. It is filed as functional, cell-based.
Series [3] in a line: Antiinflammatory activity in human Keratinocytes assessed as inhibition of LPS induced IL-1beta production at […] incubated for 24 hrs by ELISA. It is filed as functional. The settings on record: Keratinocyte, dose 7.5 µM.
Series [4] is described as follows: Antiinflammatory activity in human HEK001 cells assessed as inhibition of LPS induced IL-1beta production at […] incubated for 24 hrs by ELISA. It is filed as functional. The settings on record: dose 7.5 µM.
The subject of series [5] is RAW264.7. Briefly: Antiinflammatory activity against mouse RAW264.7 cells assessed as inhibition of IFN-gamma and LPS-induced COX2 production preincubated for 2 hrs followed by IFN-gamma and LPS stimulation and measured after 16 hrs by spectrophotometric analysis. It counts as functional, cell-based.
Series [6] is described as follows: Antiinflammatory activity in human HEK001 cells assessed as inhibition of LPS induced CCL17 production at […] incubated for 24 hrs by ELISA. The note with it: dose 7.5 µM. It counts as functional.
Series [7] concerns RAW264.7. In words: Antiinflammatory activity in mouse RAW264.7 cells assessed as inhibition of LPS-induced NO production preincubated for 1 hrs followed by LPS stimulation and measured after 24 hrs by Griess reagent based analysis. It counts as functional, cell-based. For orientation: Nitrite, measured by Griess reagent, commonly stands in for NO production.
Series [8] in a line: Antiinflammatory activity in mouse BMDM cells assessed as inhibition of LPS induced IL-1beta secretion at 5 uM. It is filed as functional.
Series [9] in a line: Antioxidant activity assessed as nitroblue tetrazolium superoxide radical scavenging activity incubated for 10 mins by spectrophotometric analysis. It counts as functional.
Series [10] has as its system RAW264.7. In words: Antiinflammatory activity in mouse RAW264.7 cells assessed as inhibition of LPS-induced NO production preincubated for 0.5 hrs followed by LPS stimulation and measured after 24 hrs by Griess reagent based analysis. It is filed as functional, cell-based.
For series [11], the system named is Mus musculus. In words: Antiinflammatory activity in Dermatophagoides farina induced atopic dermatitis like skin lesions NC/Nga mouse model assessed as inhibition of COX-2 expression level at 1 %,ip twice a week for 4 weeks by RT-PCR analysis. It is filed as functional.
In series [12] the test system is Mus musculus. In words: Antiinflammatory activity in Dermatophagoides farina induced atopic dermatitis like skin lesions NC/Nga mouse model assessed as inhibition of IL-4 level at 0.1 %,ip twice a week for 4 weeks by ELISA. It counts as functional.
Series [13] concerns RAW264.7. In words: Antiinflammatory activity in mouse RAW264.7 cells assessed as inhibition of LPS-induced NO production incubated for 24 hrs by Griess reagent based analysis. The settings on record: RAW264.7, 24 h. It counts as functional, cell-based.
Series [14] concerns Mus musculus. In words: Antiinflammatory activity in Dermatophagoides farina induced atopic dermatitis like skin lesions NC/Nga mouse model assessed as inhibition of iNOS expression level at 1 %,ip twice a week for 4 weeks by RT-PCR analysis. It counts as functional.
Series [15] concerns Mus musculus. Briefly: Antiinflammatory activity in Dermatophagoides farina induced atopic dermatitis like skin lesions NC/Nga mouse model assessed as inhibition of IL-5 level at 1 %,ip twice a week for 4 weeks by ELISA. It is filed as functional.
In series [16] the test system is Mus musculus. Briefly: Antiinflammatory activity in Dermatophagoides farina induced atopic dermatitis like skin lesions NC/Nga mouse model assessed as inhibition of IL-5 level at 0.1 %,ip twice a week for 4 weeks by ELISA. It is filed as functional.
Series [17] in a line: Antioxidant activity assessed as DPPH radical scavenging activity incubated for 30 mins by spectrophotometric analysis. It is filed as functional. On the technique in general: Loss of DPPH colour is used to gauge radical scavenging.
Series [18] can be described thus: Antiinflammatory activity in human HEK001 cells assessed as inhibition of TNF-alpha induced CCL7 production at […] incubated for 24 hrs by ELISA. It is filed as functional. The settings on record: dose 7.5 µM.
Series [19] can be described thus: Cytotoxicity against mouse RAW264.7 cells assessed as reduction in cell viability by MTT assay. It counts as toxicity, cell-based.
Series [20] has as its system RAW264.7. In words: Antiinflammatory activity in mouse RAW264.7 cells assessed as inhibition of IFN-gamma and LPS-induced NO production incubated for 24 hrs by Griess assay. It counts as functional, cell-based. The note with it: RAW264.7, 24 h.
The nature of series [21]: Antiinflammatory activity in human HEK001 cells assessed as inhibition of TNF-alpha induced IL-8 production at […] incubated for 24 hrs by ELISA. It counts as functional. The note with it: dose 7.5 µM.
Series [22] relates to Mus musculus. In words: Antiinflammatory activity in Dermatophagoides farina induced atopic dermatitis like skin lesions NC/Nga mouse model assessed as inhibition of COX-2 expression level at 0.1 %,ip twice a week for 4 weeks by RT-PCR analysis. It is filed as functional.
Series [23] concerns Mus musculus. In words: Antiinflammatory activity in Dermatophagoides farina induced atopic dermatitis like skin lesions NC/Nga mouse model assessed as inhibition of IL-4 level at 1 %,ip twice a week for 4 weeks by ELISA. It counts as functional.
Series [24] relates to RAW264.7. Briefly: Antiinflammatory activity in mouse RAW264.7 cells assessed as inhibition of LPS-induced NF-kappaB activation incubated for 24 hrs by SEAP microplate reader analysis. It counts as functional, cell-based. The settings on record: RAW264.7, 24 h.
Series [25] in a line: Antioxidant activity assessed as nitroblue tetrazolium superoxide radical scavenging activity by spectrophotometric analysis. It counts as functional.
Series [26] has as its system RAW264.7. In words: Antiinflammatory activity in mouse RAW264.7 cells assessed as inhibition of LPS-induced NO production incubated for 24 hrs by Griess method. It counts as functional, cell-based. The note with it: RAW264.7, 24 h.
Series [27] deals with Mus musculus. Briefly: Antiinflammatory activity in Dermatophagoides farina induced atopic dermatitis like skin lesions NC/Nga mouse model assessed as inhibition of iNOS expression level at 0.1 %,ip twice a week for 4 weeks by RT-PCR analysis. It is filed as functional.
Series [28] is described as follows: Antiinflammatory activity in human HEK001 cells assessed as inhibition of TNF-alpha induced PGE2 production at […] incubated for 24 hrs by ELISA. It is filed as functional. The settings on record: dose 7.5 µM.
The nature of series [29]: Antiinflammatory activity in human HEK001 cells assessed as inhibition of LPS induced IL-8 production at […] incubated for 24 hrs by ELISA. It is filed as functional. The note with it: dose 7.5 µM.
A short description of series [30]: Antiinflammatory activity in human HEK001 cells assessed as inhibition of TNF-alpha induced NO production incubated for 24 hrs at […] by Griess reagent based analysis. It is filed as functional. The note with it: dose 7.5 µM.
The nature of series [31]: Antiinflammatory activity in human Keratinocytes assessed as inhibition of LPS induced CCL17 production at […] incubated for 24 hrs by ELISA. It counts as functional. The note with it: Keratinocyte, dose 7.5 µM.
Series [32] concerns RAW264.7. In words: Antiinflammatory activity in mouse RAW264.7 cells assessed as inhibition of LPS-induced NO production incubated for 20 hrs by Griess method. It counts as functional, cell-based. The note with it: RAW264.7, 20 h.
Series [33] has as its target Nuclear factor NF-kappa-B complex (Homo sapiens) (UniProt Q00653+P19838+Q04206). Briefly: Inhibition of human NF-kappaB p65 binding to DNA in LPS-stimulated human keratinocytes at […] for 30 mins by ELISA. It is filed as cell-based. The note with it: Keratinocyte, dose 7.5 µM.
Series [34] is described as follows: Antioxidant activity assessed as DPPH radical scavenging activity incubated for 25 mins by spectrophotometric analysis. It counts as functional.
The test system of series [35] is RAW264.7. In words: Cytotoxicity against mouse RAW264.7 cells assessed as reduction in cell viability at 30 uM by MTT assay. The settings on record: raw264.7, 30 µM. It counts as toxicity, cell-based.
The subject of series [36] is Mus musculus. In words: Antiinflammatory activity in ICR mouse model of TPA-induced ear edema assessed as inhibition of ear inflammation at 1 mg,TOP for 30 mins followed by TPA addition and measured after 6 hrs. The note with it: time 390 min, 6.5 h. It counts as functional.
Series [37] deals with RAW264.7. In words: Antiinflammatory activity in mouse RAW264.7 cells assessed as inhibition of LPS-induced NO production at 30 uM preincubated for 0.5 hrs followed by LPS stimulation and measured after 24 hrs by Griess reagent based analysis. The settings on record: time 24.5 hrs. It counts as functional.
Series [38] concerns MCF-10A. Briefly: Antiinflammatory activity in human MCF-10A cells assessed as inhibition of TPA-induced COX2 production at 12.5 to 100 uM incubated for 4 hrs by Western blot analysis. It is filed as functional. The note with it: dose 12.5-100 µM.
Series [39] concerns RAW264.7. Briefly: Antiinflammatory activity in mouse RAW264.7 cells assessed as inhibition of IFN-gamma and LPS-induced NO production incubated for 20 hrs by Griess assay. It is filed as functional, cell-based. The settings on record: RAW264.7, 20 h.

Nuclear factor NF-kappa-B complex (Homo sapiens), sequence (P19838 whole entry, looked up): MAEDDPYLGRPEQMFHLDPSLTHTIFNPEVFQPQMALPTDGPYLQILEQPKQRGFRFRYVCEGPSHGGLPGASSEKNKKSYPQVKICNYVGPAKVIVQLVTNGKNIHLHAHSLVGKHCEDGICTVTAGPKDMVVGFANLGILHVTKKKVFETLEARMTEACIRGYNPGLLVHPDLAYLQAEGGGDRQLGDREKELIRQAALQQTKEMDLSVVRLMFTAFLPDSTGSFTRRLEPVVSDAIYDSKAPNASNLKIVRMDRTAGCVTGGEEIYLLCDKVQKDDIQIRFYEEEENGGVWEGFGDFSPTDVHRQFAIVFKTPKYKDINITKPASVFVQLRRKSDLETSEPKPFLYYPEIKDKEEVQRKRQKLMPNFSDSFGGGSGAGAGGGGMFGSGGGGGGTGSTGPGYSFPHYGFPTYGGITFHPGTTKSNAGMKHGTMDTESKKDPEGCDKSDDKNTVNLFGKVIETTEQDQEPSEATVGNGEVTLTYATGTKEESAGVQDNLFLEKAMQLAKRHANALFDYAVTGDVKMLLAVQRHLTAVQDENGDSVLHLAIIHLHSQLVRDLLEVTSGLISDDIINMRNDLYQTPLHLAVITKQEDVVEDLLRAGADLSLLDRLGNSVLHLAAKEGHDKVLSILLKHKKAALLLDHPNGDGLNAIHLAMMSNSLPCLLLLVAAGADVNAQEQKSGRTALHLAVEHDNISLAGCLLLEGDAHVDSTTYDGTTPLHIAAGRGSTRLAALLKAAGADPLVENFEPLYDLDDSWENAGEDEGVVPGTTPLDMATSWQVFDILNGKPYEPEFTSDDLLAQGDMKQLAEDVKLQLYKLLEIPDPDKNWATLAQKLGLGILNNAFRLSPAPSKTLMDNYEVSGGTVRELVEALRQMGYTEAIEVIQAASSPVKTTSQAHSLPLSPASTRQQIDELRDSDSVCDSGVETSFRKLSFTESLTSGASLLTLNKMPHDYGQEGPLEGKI
Nuclear factor NF-kappa-B complex (Homo sapiens), sequence (Q00653 whole entry, looked up): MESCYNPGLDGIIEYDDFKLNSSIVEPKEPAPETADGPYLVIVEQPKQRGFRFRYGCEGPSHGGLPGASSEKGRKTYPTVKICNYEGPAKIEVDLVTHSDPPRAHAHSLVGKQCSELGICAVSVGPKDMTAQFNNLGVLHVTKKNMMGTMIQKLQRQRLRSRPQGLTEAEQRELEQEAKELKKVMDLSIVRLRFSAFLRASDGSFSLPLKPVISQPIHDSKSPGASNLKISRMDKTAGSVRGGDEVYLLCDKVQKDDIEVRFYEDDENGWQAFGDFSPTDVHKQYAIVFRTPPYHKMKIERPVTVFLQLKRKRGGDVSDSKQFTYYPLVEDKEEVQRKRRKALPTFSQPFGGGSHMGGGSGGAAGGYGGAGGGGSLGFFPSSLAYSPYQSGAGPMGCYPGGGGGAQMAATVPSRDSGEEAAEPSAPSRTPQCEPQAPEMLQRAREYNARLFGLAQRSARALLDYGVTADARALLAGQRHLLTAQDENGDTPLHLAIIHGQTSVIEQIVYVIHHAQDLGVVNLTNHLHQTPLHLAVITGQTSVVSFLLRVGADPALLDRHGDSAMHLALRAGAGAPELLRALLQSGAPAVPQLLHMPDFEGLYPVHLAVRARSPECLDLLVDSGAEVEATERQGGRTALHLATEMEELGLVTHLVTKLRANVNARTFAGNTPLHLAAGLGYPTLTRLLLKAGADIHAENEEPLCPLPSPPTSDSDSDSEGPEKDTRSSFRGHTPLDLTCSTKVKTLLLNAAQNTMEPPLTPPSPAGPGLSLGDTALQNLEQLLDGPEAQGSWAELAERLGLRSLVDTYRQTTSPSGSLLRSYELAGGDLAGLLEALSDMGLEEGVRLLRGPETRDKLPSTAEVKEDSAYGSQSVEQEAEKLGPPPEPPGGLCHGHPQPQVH
Nuclear factor NF-kappa-B complex (Homo sapiens), sequence (Q04206 whole entry, looked up): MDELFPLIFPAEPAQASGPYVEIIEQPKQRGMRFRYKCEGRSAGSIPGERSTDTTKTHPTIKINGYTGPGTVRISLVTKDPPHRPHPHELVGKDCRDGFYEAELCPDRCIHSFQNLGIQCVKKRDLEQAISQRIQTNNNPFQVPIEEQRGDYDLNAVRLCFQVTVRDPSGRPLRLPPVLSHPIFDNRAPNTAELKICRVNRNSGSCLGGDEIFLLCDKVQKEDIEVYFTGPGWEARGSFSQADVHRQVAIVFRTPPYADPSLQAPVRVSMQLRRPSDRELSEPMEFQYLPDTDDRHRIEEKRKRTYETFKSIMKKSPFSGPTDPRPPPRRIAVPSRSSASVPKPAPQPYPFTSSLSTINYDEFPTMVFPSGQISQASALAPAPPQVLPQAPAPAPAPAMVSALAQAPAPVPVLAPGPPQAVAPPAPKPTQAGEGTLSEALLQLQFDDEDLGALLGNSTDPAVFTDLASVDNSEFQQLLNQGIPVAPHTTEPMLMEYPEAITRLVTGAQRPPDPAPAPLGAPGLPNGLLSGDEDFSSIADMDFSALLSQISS

`O=C(/C=C/CCc1ccc(O)c(O)c1)CCc1ccc(O)c(O)c1` [DEHYDROHIRSUTANONOL]: the inhibition (as a rule, the drop in the measured response relative to a control, in per cent) at […] in series [1] was 37%; in [3] it was 39%; in series [4], 39%; in series [6] it was 51%; in series [18] it was 43%; in series [21], 33%. Besides, the inhibition at […] in [28] was found to be 46%; in series [29], 40%; in series [30] it was 37%; in series [31], 49%. Also, the IC50 (as a rule, the point on the concentration scale where inhibition reaches its midpoint) was > 100 µM in series [2]; 25 µg/mL (≈ 76.1 µM) in [5]; 5.8 µM in [7]; 16.8 µM in [9]; 5 µM in [10]; > 100 µM in series [13]. For the same compound, the concentration for half-maximal inhibition (IC50) in series [17] was 13.4 µM; in series [19], 39 µM; in series [20] it was 27.2 µg/mL (≈ 82.8 µM); in [24], > 100 µM; in series [25] it was 17.6 µM; in series [26] it was 14.1 µM. The IC50 in series [32] came to 0.8 µM. Moreover, the inhibition at 5 µM in [8] was determined as 73.4%. Further, the “inhibition (INH)” value is reported as 62% in series [11]; 51% in series [12]; 73% in [14]; 74% in [15]; 37% in series [16]; 57% in series [22]. Also, the “inhibition (INH)” value was 60% in series [23] and 61% in [27]. In addition, the inhibition in [33] stood at 29.5%.
As for `O=C(O)c1cc(O)c(O)c(O)c1` [GALLIC ACID], the IC50 in series [34] worked out at 10.4 µM.
As for `Oc1ccc(CCCC[C@@H](O)CCc2ccc(O)cc2)cc1`, in [35], the Activity is listed as 52%. Also, the figures for the IC50 in series [7] and in [17] were 27.8 µM and 44.4 µM, respectively. The ID50 in series [36] is on record as 0.66 mg. The inhibition at 30 µM in series [37] stood at 29%.
With `O=C(CCc1ccc(O)c(O)c1)C[C@@H](O)CCc1ccc(O)c(O)c1` [HIRSUTANONOL], the IC50 amounted to 23.7 µM in series [2]; 25.7 µg/mL (≈ 74.2 µM) in series [5]; 21.3 µM in series [7]; 19 µM in [9]; 30 µM in [10]; 19.3 µM in [13]. In addition, the half-inhibitory concentration (IC50) in series [17] came out at 26 µM; in series [20] it was 44.3 µg/mL (≈ 128 µM); in series [24] it was 9.9 µM; in [39] it was 3.8 µM; in series [32], 17.8 µM. For the same compound, the “inhibition (INH)” value in series [38] was determined as 22%.
